Patent US4303660A, “Pyrazolo[1,5-c]quinazoline derivatives and analgesic compositions containing them” (priority 1979, dated 1981)
Read-outs that look alike come from different tables or passages of the source.

Assays:
gastric acid secretion = type: in vivo, rats; conditions: for Inhibition of gastric acid secretion, percentage: rats
Text: The influence of the compounds of the invention on the gastric acid secretion was studied on rats weighing 170 to 260 g according to Shay [Gastroenterology, 5, 43 (1945)].

in vivo = conditions: printed under the reference substance in Table III
Acute toxicity = conditions: mouse, in vivo; oral; mice weighing 18 to 22 g
Protocol: The acute toxicity of the pyrazolo[1,5-c]quinazoline derivatives of the general formula I were determined on mice weighing 18 to 22 g. The compounds were administered orally.

acetic acid writhing = experiment: Acetic acid writhing test (analgesic activity); conditions: for ED50: Mus musculus, read-out: ED50 p.o.
Protocol: The analgesic activity was studied by means of the acetic acid writhing test on mice. After the intraperitoneal administration of 0.4 ml of 0.5 percent acetic acid, the writhing responses were counted between the 5 and 10 minutes. The writhing number was calculated as the percentage of the control value. The compounds tested were orally administered to the animals 1 hour prior to the treatment with acetic acid. […] Paracetamole [p-hydroxyacetanilide] and phenylbutazon [4-butyl-1,2-diphenylpyrazolidine-3,5-dione] were used as reference substance.

small intestine = experiment: Antiperistaltic effect (carbon suspension, small intestine); type: in vivo, mice; conditions: for ED50: Mus musculus, read-out: ED50 p.o.
Protocol: The antiperistaltic effect of the compounds of the invention was examined on groups of mice consisting of 10 animals. Each dosis of the compound to be tested was administered to one group, orally, 60 minutes prior to the administration of a 10 percent carbon suspension. 20 minutes after the administration of the carbon suspension, the animals were sacrificed and the length of the entire small intestine as well as that of the small intestine filled with carbon were determined. The reference substance used was papaverine [1-(3,4-dimethoxybenzyl)-6,7-dimethoxyisoquinoline].

[1] = antiperistaltic effect, oral, 60 minutes prior to 10 percent carbon suspension, mice

CCCN(CCC)C(=O)C(CCC(=O)O)NC(=O)c1ccccc1 (racemic) [proglumide, D,L-4-benzamido-N,N-dipropylglutaramic acid, reference compound]
Inhibition of gastric acid secretion, percentage (gastric acid secretion; 200 mg/kg p.o.): about 20 percentage
Therapeutic index (gastric acid secretion; gastric acid secretion, p.o.): 11.4
LD50 (in vivo): 2780 mg/kg

O=[N+]([O-])c1cnn2cnc3ccccc3c12 [Example 1, 1-Nitropyrazolo[1,5-c]quinazoline]
LD50 (Acute toxicity): 2000 mg/kg
ED50 (acetic acid writhing; po): 50 mg/kg
Therapeutic index (acetic acid writhing; mouse, in vivo, po): 40
ED50 (small intestine; [1]): 18 mg/kg
Therapeutic index (small intestine; mouse, in vivo, po): 111

Cc1nc2ccccc2c2c([N+](=O)[O-])cnn12 [Example 3, 1-Nitro-5-methylpyrazolo[1,5-c]quinazoline]
LD50 (Acute toxicity): 2000 mg/kg
ED50 (small intestine; [1]): 400 mg/kg
Therapeutic index (small intestine; mouse, in vivo, po): 5

CC(=O)Nc1cnn2cnc3ccccc3c12 [Example 5, 1-Acetaminopyrazolo[1,5-c]quinazoline]
LD50 (Acute toxicity): 2000 mg/kg
Inhibition of gastric acid secretion, percentage (gastric acid secretion; 70 mg/kg p.o.): about 50 percentage
Inhibition of gastric acid secretion, percentage (gastric acid secretion; 100 mg/kg p.o.): 93 percentage
Therapeutic index (gastric acid secretion; rat, in vivo, po): 28.6
ED50 (small intestine; [1]): 400 mg/kg
Therapeutic index (small intestine; mouse, in vivo, po): 5

CC1(C)Nc2ccccc2-c2c([N+](=O)[O-])cnn21 [Example 9, 1-Nitro-5,5-dimethyl-5,6-dihydropyrazolo[1,5-c]quinazoline]
LD50 (Acute toxicity): 2000 mg/kg
ED50 (small intestine; [1]): 400 mg/kg
Therapeutic index (small intestine; mouse, in vivo, po): 5

CC(=O)N1c2ccccc2-c2c([N+](=O)[O-])cnn2C1C (stereo not drawn) [Example 27, 1-Nitro-5-methyl-6-acetyl-5,6-dihydropyrazolo[1,5-c]quinazoline]
LD50 (Acute toxicity): 2000 mg/kg
Inhibition of gastric acid secretion, percentage (gastric acid secretion; 50 mg/kg p.o.): 33 percentage
Inhibition of gastric acid secretion, percentage (gastric acid secretion; 62 mg/kg p.o.): about 50 percentage
Inhibition of gastric acid secretion, percentage (gastric acid secretion; 100 mg/kg p.o.): 82 percentage
Therapeutic index (gastric acid secretion; rat, in vivo, po): 32.3
ED50 (small intestine; [1]): 50 mg/kg
Therapeutic index (small intestine; mouse, in vivo, po): 40

CC(=O)N1c2ccccc2-c2c([N+](=O)[O-])cnn2C1(C)C [Example 31, 1-Nitro-5,5-dimethyl-6-acetyl-5,6-dihydropyrazolo[1,5-c]quinazoline]
LD50 (Acute toxicity): 2000 mg/kg
ED50 (small intestine; [1]): 50 mg/kg
Therapeutic index (small intestine; mouse, in vivo, po): 40

CC(=O)Nc1cnn2c1-c1ccccc1NC2(C)C [Example 33, 1-Acetamino-5,5-dimethyl-5,6-dihydropyrazolo[1,5-c]quinazoline]
LD50 (Acute toxicity): 2000 mg/kg
ED50 (small intestine; [1]): 45 mg/kg
Therapeutic index (small intestine; mouse, in vivo, po): 45

CC(=O)Nc1cnn2c1-c1ccccc1N(C(C)=O)C2(C)C [Example 34]
LD50 (Acute toxicity): 2000 mg/kg
ED50 (acetic acid writhing; po): 25 mg/kg
Therapeutic index (acetic acid writhing; analgesic activity test, p.o.): 80
ED50 (small intestine; po): 60 mg/kg
Therapeutic index (small intestine; antiperistaltic effect, p.o.): 33

CC(=O)Nc1cnn2c1-c1ccccc1N(C(C)=O)C2C (stereo not drawn) [Example 35, 1-Acetamino-5-methyl-6-acetyl-5,6-dihydropyrazolo[1,5-c]quinazoline]
LD50 (Acute toxicity): 2000 mg/kg
ED50 (small intestine; [1]): 145 mg/kg
Therapeutic index (small intestine; mouse, in vivo, po): 14

CC(=O)Nc1cnn2c(C)nc3ccccc3c12 [Example 36, 1-Acetamino-5-methylpyrazolo[1,5-c]quinazoline]
LD50 (Acute toxicity): 1800 mg/kg
Inhibition of gastric acid secretion, percentage (gastric acid secretion; 50 mg/kg p.o.): 30 percentage
Inhibition of gastric acid secretion, percentage (gastric acid secretion; 65 mg/kg p.o.): about 50 percentage
Inhibition of gastric acid secretion, percentage (gastric acid secretion; 100 mg/kg p.o.): 73 percentage
Therapeutic index (gastric acid secretion; rat, in vivo, po): 27.7
ED50 (small intestine; [1]): 360 mg/kg
Therapeutic index (small intestine; mouse, in vivo, po): 5

CN/C(=N/CCSCc1nc[nH]c1C)NC#N [cimetidine, 1-methyl-3-[2-(5-methylimidazol-4-yl-methylthio)ethyl]guanidine-2-carbonitrile, reference compound]
Inhibition of gastric acid secretion, percentage (gastric acid secretion; 50 mg/kg p.o.): 45 percentage
Therapeutic index (gastric acid secretion; rat, in vivo, po): 9.4
LD50 (in vivo): 470 mg/kg

COc1ccc(Cc2nccc3cc(OC)c(OC)cc23)cc1OC [papaverine, 1-(3,4-dimethoxybenzyl)-6,7-dimethoxyisoquinoline, reference compound]
ED50 (small intestine; po): 180 mg/kg
Therapeutic index (small intestine; antiperistaltic effect, p.o.): 3.4

CC(=O)Nc1ccc(O)cc1 [paracetamole, p-hydroxyacetanilide, reference compound]
ED50 (acetic acid writhing; po): 180 mg/kg
Therapeutic index (acetic acid writhing; analgesic activity test, p.o.): 2,8

CCCCC1C(=O)N(c2ccccc2)N(c2ccccc2)C1=O [phenylbutazon, 4-butyl-1,2-diphenylpyrazolidine-3,5-dione, reference compound]
ED50 (acetic acid writhing; po): 60 mg/kg
Therapeutic index (acetic acid writhing; mouse, in vivo, po): 16,6
